# From ChEMBL document CHEMBL5465560, “Selectivity Literature for EUbOPEN Chemogenomic Library” (2024)
# Assays:
# [1] = target: T1, Cyclin-dependent kinase 7 (Homo sapiens, UniProt P50613); test: Selectivity interaction (Western blot assay (pull-down blockage of CDK7-cyclin H using lysates from Jurkat cells)) EUB0001635a CDK7; type: subcellular, lysate
# [2] = target: Cyclin-dependent kinase 7 (Homo sapiens, UniProt P50613, C312S); test: Selectivity interaction (Radioactive kinase assays (from cellular C312S flag-tagged CDK7 immunoprecipitated in HeLa cells)) EUB0001635a CDK7; type: cell-based
# Sequence of Cyclin-dependent kinase 7 (Homo sapiens, UniProt P50613, C312S) (P50613 2-346 C312S limits assumed): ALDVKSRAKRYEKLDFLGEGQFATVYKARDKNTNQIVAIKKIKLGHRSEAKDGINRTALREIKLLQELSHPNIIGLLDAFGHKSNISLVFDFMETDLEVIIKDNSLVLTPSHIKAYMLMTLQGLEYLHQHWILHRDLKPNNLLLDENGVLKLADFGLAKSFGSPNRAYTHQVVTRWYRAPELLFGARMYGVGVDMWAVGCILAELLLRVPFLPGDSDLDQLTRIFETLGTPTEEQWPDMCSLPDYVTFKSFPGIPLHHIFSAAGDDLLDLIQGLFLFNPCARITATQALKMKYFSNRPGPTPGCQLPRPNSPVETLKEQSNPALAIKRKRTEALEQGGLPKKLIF
# [3] = target: T2, Cyclin-dependent kinase 13 (Homo sapiens, UniProt Q14004); test: Selectivity interaction (Western blot assay (pull-down blockage of CDK7-cyclin H using lysates from HAP1 cells)) EUB0001635a CDK13; type: cell-based
# T2 sequence (Q14004 whole entry): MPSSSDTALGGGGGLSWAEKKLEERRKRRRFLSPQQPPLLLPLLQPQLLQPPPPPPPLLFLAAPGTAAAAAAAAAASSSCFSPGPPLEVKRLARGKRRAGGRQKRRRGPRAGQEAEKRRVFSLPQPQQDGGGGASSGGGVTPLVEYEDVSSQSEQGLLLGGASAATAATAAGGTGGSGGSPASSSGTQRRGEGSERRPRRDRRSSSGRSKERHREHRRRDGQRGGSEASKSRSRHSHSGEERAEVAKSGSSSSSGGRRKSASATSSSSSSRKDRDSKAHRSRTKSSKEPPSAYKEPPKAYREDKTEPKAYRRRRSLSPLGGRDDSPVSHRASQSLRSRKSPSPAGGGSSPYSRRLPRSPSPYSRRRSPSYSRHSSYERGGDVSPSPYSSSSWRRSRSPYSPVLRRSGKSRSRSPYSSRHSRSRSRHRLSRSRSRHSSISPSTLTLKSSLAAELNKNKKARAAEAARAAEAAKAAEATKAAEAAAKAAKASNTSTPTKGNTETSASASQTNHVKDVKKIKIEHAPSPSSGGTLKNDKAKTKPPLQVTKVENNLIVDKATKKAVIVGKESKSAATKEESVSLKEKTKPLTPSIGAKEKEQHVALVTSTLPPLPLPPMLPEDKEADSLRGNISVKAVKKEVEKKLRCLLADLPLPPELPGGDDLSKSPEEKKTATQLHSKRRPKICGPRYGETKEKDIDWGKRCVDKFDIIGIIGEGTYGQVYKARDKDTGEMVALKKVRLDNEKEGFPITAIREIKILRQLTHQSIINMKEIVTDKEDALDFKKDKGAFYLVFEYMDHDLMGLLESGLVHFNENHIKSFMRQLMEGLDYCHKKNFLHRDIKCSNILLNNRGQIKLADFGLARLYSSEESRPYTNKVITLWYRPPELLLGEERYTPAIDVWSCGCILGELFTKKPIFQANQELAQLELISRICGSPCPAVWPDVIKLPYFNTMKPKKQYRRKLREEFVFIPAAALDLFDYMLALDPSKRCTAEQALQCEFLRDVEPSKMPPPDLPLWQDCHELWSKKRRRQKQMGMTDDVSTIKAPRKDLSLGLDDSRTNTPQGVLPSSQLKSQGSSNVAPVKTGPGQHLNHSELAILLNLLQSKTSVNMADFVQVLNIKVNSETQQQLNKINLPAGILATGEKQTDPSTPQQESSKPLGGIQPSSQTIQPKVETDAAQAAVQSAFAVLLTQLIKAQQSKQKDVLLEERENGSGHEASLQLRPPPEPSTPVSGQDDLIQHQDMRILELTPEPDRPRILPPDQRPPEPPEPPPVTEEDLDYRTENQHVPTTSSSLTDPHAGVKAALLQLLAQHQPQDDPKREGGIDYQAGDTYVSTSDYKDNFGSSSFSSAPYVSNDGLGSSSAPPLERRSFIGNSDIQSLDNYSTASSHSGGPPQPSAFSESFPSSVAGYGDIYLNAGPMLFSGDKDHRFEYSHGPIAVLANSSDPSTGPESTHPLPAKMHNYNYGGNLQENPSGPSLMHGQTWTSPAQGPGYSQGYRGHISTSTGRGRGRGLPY
# [4] = target: T3, Cyclin-dependent kinase 12 (Homo sapiens, UniProt Q9NYV4); test: Selectivity interaction (Western blot assay (pull-down blockage of CDK7-cyclin H using lysates from Jurkat cells)) EUB0001635a CDK12; type: subcellular, lysate
# T3 sequence (Q9NYV4 whole entry): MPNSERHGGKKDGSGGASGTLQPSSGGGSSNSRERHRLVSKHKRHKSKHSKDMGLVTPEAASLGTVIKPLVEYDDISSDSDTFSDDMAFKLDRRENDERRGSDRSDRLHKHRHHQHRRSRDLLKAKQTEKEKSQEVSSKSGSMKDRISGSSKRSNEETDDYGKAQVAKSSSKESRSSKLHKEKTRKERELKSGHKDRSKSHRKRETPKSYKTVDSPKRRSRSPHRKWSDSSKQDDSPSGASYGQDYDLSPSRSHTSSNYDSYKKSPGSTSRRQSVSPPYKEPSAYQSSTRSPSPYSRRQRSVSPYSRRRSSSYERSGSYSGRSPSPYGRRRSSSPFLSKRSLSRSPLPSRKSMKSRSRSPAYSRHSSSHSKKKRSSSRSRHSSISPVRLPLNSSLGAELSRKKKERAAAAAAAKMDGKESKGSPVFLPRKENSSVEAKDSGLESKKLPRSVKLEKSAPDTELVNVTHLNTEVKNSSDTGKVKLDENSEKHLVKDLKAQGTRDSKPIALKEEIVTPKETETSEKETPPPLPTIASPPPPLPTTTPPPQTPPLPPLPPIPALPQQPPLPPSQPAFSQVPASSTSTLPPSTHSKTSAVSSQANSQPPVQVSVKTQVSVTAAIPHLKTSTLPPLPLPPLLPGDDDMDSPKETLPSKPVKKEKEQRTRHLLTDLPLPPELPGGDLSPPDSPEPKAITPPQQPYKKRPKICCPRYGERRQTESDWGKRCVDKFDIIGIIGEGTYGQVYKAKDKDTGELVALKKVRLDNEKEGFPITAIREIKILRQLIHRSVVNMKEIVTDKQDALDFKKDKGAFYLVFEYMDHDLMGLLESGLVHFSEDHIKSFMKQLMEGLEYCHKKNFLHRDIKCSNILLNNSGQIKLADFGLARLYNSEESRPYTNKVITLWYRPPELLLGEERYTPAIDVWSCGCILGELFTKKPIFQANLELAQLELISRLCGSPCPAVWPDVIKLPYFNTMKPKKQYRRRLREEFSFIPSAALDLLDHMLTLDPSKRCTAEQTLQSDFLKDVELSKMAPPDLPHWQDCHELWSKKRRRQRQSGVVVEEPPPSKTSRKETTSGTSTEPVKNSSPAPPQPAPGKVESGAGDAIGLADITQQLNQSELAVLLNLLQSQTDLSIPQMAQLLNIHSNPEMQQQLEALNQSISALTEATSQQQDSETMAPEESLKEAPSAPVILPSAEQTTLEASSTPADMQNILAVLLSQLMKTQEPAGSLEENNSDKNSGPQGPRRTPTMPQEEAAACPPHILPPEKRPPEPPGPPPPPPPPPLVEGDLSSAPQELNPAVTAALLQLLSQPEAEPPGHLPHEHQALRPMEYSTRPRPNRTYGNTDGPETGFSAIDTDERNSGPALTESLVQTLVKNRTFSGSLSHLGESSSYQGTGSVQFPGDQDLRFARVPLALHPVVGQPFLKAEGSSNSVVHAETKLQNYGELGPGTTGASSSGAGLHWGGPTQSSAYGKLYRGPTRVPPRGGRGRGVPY
# [5] = target: T1, Cyclin-dependent kinase 7; test: Selectivity interaction (Electrophoretic mobility shift assay) EUB0001635a CDK7
# [6] = target: T3, Cyclin-dependent kinase 12; test: Selectivity interaction (Western blot assay (pull-down blockage of CDK7-cyclin H using lysates from HAP1 cells)) EUB0001635a CDK12; type: cell-based
# [7] = target: T2, Cyclin-dependent kinase 13; test: Selectivity interaction (Western blot assay (pull-down blockage of CDK7-cyclin H using lysates from Jurkat cells)) EUB0001635a CDK13; type: subcellular, lysate
# [8] = target: T1, Cyclin-dependent kinase 7; test: Selectivity interaction (Western blot assay (pull-down blockage of CDK7-cyclin H using lysates from HAP1 cells)) EUB0001635a CDK7; type: cell-based
# [9] = target: T2, Cyclin-dependent kinase 13; test: Selectivity interaction (Radioactive kinase activity assay) EUB0001635a CDK13
# [10] = target: T3, Cyclin-dependent kinase 12; test: Selectivity interaction (Radioactive kinase activity assay) EUB0001635a CDK12
# [11] = target: CDK5/Cyclin D3 (Homo sapiens) (UniProt Q00535+P30281); test: (§1) Selectivity interaction (Kinase panel (literature)) EUB0001623a CDK5; type: protein-complex assay; conditions: at 1 µM
# [12] = target: Cyclin-dependent kinase 5 (Homo sapiens, UniProt Q00535); test: as §1; conditions: at 1 µM
# [13] = target: NT-3 growth factor receptor (Homo sapiens, UniProt Q16288); test: Selectivity interaction (Kinase panel (literature)) EUB0001623a NTRK3
# [14] = target: Cyclin-dependent kinase 2/cyclin A (Homo sapiens) (UniProt P24941+P20248+P78396); test: Selectivity interaction (Kinase panel (literature)) EUB0001623a CDK2; type: protein-complex assay; conditions: at 1 µM
# [15] = target: Cyclin-dependent kinase 8 (Homo sapiens, UniProt P49336); test: Selectivity interaction (Reporter displacement assay) EUB0001623a CDK8
# [16] = target: Cyclin-dependent kinase 1/cyclin B (Homo sapiens) (UniProt P06493+P14635+Q8WWL7+O95067); test: Selectivity interaction (Kinase panel (literature)) EUB0001623a CDK1; type: protein-complex assay; conditions: at 1 µM
# [17] = target: Adenosine receptor A1 (Homo sapiens) (UniProt P30542); test: Selectivity interaction (CEREP panel (binding assay, receptors and ion channels)) EUB0001623a ADORA1; conditions: at 1 µM
# Sequence of Adenosine receptor A1 (Homo sapiens) (P30542 whole entry): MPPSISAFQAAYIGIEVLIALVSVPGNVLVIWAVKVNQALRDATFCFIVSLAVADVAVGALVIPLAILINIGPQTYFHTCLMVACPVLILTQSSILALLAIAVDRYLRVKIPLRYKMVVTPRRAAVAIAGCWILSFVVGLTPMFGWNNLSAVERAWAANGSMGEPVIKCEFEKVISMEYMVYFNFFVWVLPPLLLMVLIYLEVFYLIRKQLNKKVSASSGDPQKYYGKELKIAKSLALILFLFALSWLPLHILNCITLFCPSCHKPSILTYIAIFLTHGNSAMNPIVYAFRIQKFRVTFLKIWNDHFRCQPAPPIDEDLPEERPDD
# [18] = target: CDK7/Cyclin H/MNAT1 (Homo sapiens) (UniProt P51946+P50613+P51948); test: Selectivity interaction (Kinase panel (literature)) EUB0001623a CDK7; type: protein-complex assay; conditions: at 1 µM
# [19] = target: Ribosomal protein S6 kinase beta-1 (Homo sapiens, UniProt P23443); test: Selectivity interaction (Kinase panel (literature)) EUB0001623a RPS6KB1; conditions: at 1 µM
# Sequence of Ribosomal protein S6 kinase beta-1 (P23443 whole entry, looked up): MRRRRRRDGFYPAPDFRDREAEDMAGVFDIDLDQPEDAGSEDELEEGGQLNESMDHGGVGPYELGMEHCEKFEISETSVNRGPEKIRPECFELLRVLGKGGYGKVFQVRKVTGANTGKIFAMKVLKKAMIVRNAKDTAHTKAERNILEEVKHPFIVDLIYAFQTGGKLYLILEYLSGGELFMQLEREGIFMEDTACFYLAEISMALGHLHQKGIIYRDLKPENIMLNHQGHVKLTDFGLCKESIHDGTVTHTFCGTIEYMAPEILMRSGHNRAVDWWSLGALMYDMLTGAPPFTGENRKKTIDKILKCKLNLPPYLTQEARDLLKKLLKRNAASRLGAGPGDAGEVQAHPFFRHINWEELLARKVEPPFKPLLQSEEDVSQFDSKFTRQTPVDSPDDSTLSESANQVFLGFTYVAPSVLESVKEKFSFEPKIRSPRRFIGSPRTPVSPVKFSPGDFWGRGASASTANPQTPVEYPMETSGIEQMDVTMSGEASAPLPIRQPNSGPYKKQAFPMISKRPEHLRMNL
# [20] = target: Cyclin-dependent kinase 9 (Homo sapiens, UniProt P50750); test: Selectivity interaction (Reporter displacement assay) EUB0001623a CDK9
# [21] = target: T4, D(2) dopamine receptor (Homo sapiens, UniProt P14416); test: (§2) Selectivity interaction (CEREP panel (binding assay, receptors and ion channels)) EUB0001623a DRD2
# T4 sequence (P14416 whole entry): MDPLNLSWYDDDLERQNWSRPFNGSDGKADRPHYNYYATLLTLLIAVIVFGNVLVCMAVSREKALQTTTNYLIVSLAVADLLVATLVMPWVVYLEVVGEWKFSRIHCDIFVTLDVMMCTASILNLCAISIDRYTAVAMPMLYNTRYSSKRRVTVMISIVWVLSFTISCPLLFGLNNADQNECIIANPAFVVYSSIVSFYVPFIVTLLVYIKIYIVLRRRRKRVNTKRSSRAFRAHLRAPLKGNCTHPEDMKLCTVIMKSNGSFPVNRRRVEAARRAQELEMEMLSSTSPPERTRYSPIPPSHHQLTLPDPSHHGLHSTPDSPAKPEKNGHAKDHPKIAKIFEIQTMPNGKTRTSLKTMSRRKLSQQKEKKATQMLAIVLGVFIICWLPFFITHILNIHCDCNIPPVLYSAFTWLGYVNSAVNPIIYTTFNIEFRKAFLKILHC
# [22] = target: CDK9/cyclin T1 (Homo sapiens) (UniProt O60563+P50750); test: Selectivity interaction (Kinase panel (literature)) EUB0001623a CDK9; type: protein-complex assay; conditions: at 1 µM
# [23] = target: T5, Receptor-type tyrosine-protein kinase FLT3 (Homo sapiens, UniProt P36888); test: Selectivity interaction (Kinase panel (literature)) EUB0001623a FLT3
# T5 sequence (P36888 whole entry): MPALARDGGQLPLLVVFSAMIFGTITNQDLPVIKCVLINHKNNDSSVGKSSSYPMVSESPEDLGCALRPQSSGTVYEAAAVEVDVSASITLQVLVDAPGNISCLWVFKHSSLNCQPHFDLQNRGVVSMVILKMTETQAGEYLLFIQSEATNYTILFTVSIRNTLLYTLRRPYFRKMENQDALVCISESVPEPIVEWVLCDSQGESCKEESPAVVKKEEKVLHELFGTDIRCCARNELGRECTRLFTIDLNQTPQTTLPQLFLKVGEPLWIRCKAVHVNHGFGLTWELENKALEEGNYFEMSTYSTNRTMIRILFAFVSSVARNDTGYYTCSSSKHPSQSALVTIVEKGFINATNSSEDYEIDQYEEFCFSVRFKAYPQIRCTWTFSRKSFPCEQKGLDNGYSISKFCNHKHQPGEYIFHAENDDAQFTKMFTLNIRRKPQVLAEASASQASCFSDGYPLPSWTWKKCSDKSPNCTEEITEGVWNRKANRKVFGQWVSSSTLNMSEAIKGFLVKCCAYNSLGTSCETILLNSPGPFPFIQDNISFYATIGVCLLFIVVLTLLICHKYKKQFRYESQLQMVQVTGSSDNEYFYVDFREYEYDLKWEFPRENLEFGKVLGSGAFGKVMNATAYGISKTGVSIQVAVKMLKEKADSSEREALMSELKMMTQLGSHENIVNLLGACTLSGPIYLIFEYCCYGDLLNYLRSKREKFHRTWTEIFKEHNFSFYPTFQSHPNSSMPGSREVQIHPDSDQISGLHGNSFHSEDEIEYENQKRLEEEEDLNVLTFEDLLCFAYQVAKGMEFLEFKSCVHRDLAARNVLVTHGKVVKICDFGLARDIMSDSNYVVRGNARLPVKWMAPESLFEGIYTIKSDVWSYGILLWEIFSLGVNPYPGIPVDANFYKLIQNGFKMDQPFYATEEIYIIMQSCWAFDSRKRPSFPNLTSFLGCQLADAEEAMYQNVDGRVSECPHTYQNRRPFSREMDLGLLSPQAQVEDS
# [24] = target: Cyclin-dependent kinase 2/cyclin E (Homo sapiens) (UniProt P24864+P24941+O96020); conditions: at 1 µM
# [25] = target: CDK6/cyclin D3 (Homo sapiens) (UniProt P30281+Q00534); test: Selectivity interaction (Kinase panel (literature)) EUB0001623a CDK6; type: protein-complex assay; conditions: at 1 µM
# [26] = target: T6, Serine/threonine-protein kinase Sgk1 (Homo sapiens) (UniProt O00141); test: Selectivity interaction (Kinase panel (literature)) EUB0001623a SGK1; conditions: at 1 µM
# T6 sequence (whole entry): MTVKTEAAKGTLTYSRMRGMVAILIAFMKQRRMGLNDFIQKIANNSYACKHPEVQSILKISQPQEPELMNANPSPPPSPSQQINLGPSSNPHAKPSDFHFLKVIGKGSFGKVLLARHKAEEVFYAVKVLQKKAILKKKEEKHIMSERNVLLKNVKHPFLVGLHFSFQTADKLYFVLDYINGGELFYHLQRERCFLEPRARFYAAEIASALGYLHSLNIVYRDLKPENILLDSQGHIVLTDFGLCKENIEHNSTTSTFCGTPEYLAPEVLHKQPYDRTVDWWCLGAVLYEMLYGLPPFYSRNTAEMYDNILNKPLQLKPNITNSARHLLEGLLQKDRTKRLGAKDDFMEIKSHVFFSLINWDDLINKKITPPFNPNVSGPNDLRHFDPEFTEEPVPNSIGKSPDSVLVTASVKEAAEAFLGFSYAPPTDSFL
# [27] = target: T4, D(2) dopamine receptor; test: as §2; conditions: at 1 µM
# [28] = target: Cyclin-dependent kinase 3 (Homo sapiens) (UniProt Q00526); conditions: at 1 µM
# T1 sequence (P50613 whole entry): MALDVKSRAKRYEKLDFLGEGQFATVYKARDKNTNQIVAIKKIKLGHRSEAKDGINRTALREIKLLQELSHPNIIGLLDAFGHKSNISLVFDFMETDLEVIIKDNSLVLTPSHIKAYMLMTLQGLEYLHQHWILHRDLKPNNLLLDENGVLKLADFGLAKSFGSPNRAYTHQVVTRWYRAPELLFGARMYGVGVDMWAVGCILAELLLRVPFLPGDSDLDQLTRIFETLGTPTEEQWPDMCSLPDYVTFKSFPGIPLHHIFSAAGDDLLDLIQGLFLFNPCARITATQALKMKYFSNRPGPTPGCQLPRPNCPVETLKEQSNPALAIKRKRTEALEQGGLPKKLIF
compound,measurement,setting,value
C=CC(=O)Nc1ccc(C(=O)Nc2n[nH]c3c2CN(C(=O)N[C@H](CN(C)C)c2ccccc2)C3(C)C)cc1,IC50,[1],> 30 µM
same,IC50,[2],> 10 µM
same,IC50,[3],> 1 µM
same,IC50,[4],> 1 µM
same,Ki,[5],0.0019 µM
same,IC50,[6],> 1 µM
same,IC50,[7],> 1 µM
same,IC50,[8],> 30 µM
same,IC50,[9],> 10 µM
same,IC50,[10],> 10 µM
Cc1n[nH]c2ncc(C(=O)N3CCC[C@H]3c3ccc(Cl)cc3)cc12,% of inhibition,[11],-1%
same,% of inhibition,[12],-1%
same,IC50,[13],> 30 µM
same,% of inhibition,[14],-7%
same,IC50,[15],0.004 µM
same,% of inhibition,[16],2%
same,% of inhibition,[17],48%
same,% of inhibition,[18],7%
same,% of inhibition,[19],47%
same,IC50,[20],0.004 µM
same,IC50,[21],8.5 µM
same,% of inhibition,[22],13%
same,IC50,[23],> 30 µM
same,% of inhibition,[24],18%
same,% of inhibition,[25],12%
same,% of inhibition,[26],39%
same,% of inhibition,[27],54%
same,% of inhibition,[28],2%
